Activity calls are given as the source filed them.
Assays:
[1] = target: 5-hydroxytryptamine receptor 2A (Mus musculus, UniProt P35363); assay type: functional, cell-based;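 also: CHO-K1 cells with tagged receptor and beta-arrestin; agonist potency measured as compound-induced activation of the receptor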
Mu-type opioid receptor = Mu-type opioid receptor (Homo sapiens, UniProt P35372); assay type: functional, cell-based;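 also: U2OS cells with beta-arrestin recruitment to OPRM1 by beta-gal complementation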
[2] = target: Photoreceptor-specific nuclear receptor (Homo sapiens, UniProt Q9Y5X4); assay type: functional, cell-based;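 also: CHO-S cells with Gal4-NCOR and VP16-NR2E3 two-hybrid luciferase reporter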
INS1 = test: INS-1E survival protection against cytokine death – cell-based, luminescence, retest, dose response (AID 449756); assay type: functional; details: Rattus norvegicus;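 also: cell death triggered by IL-1 beta plus TNF-alpha plus IFN-gamma mixture; protective hits raise ATP signal compared with cytokine alone wells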
Major prion protein = Major prion protein (Homo sapiens, UniProt P04156); assay type: functional, cell-based
[3] = target: T1, Small ubiquitin-related modifier 1 (Homo sapiens, UniProt P63165); test: SUMO1 protein interaction blockers, potency – biochemical, fluorescence polarization, uHTS hits, dose response (AID 624382); assay type: functional; details: read-out: IC50_Mean
[4] = target: T1, Small ubiquitin-related modifier 1; test: SUMO1 protein-protein binding blockers, potency – biochemical, FRET, dose response (AID 624383); assay type: functional; details: read-out: IC50_Mean
[5] = target: T2, Zinc finger protein mex-5 (Caenorhabditis elegans, UniProt Q9XUB2); test: potency of MEX-5 RNA-binding blockers – biochemical, C. elegans, fluorescence polarization, dose response (AID 1960)
T2 sequence (Q9XUB2 whole entry): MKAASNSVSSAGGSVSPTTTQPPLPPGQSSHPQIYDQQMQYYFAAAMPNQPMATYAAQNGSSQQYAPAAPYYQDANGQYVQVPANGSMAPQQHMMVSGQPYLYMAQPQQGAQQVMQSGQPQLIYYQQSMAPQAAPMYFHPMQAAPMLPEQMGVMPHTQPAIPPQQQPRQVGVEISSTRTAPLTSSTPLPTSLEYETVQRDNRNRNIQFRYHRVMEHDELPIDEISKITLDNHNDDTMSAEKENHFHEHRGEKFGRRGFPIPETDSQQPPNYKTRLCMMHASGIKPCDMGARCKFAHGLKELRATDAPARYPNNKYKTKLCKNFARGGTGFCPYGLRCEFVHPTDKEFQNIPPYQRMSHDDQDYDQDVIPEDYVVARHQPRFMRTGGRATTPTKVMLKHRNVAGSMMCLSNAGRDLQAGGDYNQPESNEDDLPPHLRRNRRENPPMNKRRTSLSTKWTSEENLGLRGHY

[6] = target: T3, Probable nicotinate-nucleotide adenylyltransferase (Staphylococcus aureus (strain N315), UniProt P65502); assay type: functional, Staphylococcus aureus subsp. aureus N315;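 as to IC50 Mean: confirmatory dose-response retesting of NadD inhibitor hits first found in an ultra-high-throughput screen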
[7] = target: T3, Probable nicotinate-nucleotide adenylyltransferase; assay type: functional, Staphylococcus aureus subsp. aureus N315; details: read-out: IC50_Mean
[8] = target: T4, RNA-binding protein pos-1 (Caenorhabditis elegans, UniProt G5EF15); test: disruptors of C. elegans POS-1 RNA interaction – biochemical, fluorescence polarization, dose response (AID 1964);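 also: purified POS-1 fused to maltose binding protein made in E. coli; potency of compounds blocking POS-1 binding to fluorescent RNA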
T4 sequence (G5EF15 whole entry): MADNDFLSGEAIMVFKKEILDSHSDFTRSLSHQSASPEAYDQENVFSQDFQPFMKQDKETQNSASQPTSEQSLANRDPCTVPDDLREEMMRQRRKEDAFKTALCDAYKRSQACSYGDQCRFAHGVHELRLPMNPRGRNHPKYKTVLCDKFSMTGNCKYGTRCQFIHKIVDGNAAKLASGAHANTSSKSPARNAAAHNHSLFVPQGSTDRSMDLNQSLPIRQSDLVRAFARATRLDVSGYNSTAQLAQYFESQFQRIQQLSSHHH

Beta-lactamase [9] = target: Beta-lactamase (Salmonella choleraesuis (strain SC-B67), UniProt Q5J463)
Beta-lactamase [10] = target: Beta-lactamase (Pseudomonas aeruginosa, UniProt Q79MP6);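 also: biochemical dose-response test of metallo-beta-lactamase enzyme inhibition, read out by epi-absorbance; purified recombinant IMP-1 metallo-beta-lactamase with nitrocefin as substrate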
[11] = target: T5, Carboxy-terminal domain RNA polymerase II polypeptide A small phosphatase 1 (Homo sapiens, UniProt Q9GZU7); test: CTDSP1 inhibitors, concentration-response, biochemical, absorbance readout, ultra-high-throughput screen actives (AID 540297); assay type: functional
T5 sequence (Q9GZU7 whole entry): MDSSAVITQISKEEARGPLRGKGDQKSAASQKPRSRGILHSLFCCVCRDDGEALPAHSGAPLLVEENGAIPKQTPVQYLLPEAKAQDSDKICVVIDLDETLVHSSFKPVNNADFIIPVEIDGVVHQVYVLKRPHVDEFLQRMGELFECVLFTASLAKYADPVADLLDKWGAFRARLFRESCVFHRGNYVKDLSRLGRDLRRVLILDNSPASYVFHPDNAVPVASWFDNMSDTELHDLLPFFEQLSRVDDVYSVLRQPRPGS

Cytochrome P450 2C9 = Cytochrome P450 2C9 (Homo sapiens, UniProt P11712)
[12] = target: T6, High affinity choline transporter 1 (Homo sapiens, UniProt Q9GZV3); test: human choline transporter blockers, potency – cell-based, 5-point CRC, membrane potential dye, dose response (AID 504840); assay type: functional
T6 sequence (Q9GZV3 whole entry): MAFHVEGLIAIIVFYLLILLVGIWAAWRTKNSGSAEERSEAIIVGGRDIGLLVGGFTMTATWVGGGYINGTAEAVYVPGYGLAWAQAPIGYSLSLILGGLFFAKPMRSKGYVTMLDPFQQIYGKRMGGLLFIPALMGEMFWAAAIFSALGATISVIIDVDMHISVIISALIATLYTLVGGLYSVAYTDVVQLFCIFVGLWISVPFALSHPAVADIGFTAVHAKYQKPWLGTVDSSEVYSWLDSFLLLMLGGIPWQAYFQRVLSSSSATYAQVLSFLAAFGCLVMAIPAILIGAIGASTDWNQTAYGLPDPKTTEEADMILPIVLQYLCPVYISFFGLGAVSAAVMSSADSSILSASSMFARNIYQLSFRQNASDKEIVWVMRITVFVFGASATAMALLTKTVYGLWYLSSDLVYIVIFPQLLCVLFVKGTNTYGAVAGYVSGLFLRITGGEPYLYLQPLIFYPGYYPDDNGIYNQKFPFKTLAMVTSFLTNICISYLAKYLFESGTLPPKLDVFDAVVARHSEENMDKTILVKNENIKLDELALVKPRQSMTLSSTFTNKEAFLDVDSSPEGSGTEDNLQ

[13] = target: T6, High affinity choline transporter 1; test: human choline transporter blockers, potency – cell-based, 10-point CRC, membrane potential dye, dose response (AID 588401); assay type: functional;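 also: membrane potential dye fluorescence of choline-evoked depolarization via CHT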
[14] = target: DNA (cytosine-5)-methyltransferase 1 (Homo sapiens, UniProt P26358); test: inhibition of DNA methylation by DNMT1 – biochemical, fluorescent molecular beacon, confirmation (AID 602386); assay type: functional
Genome polyprotein = Genome polyprotein (dengue virus type 2, UniProt P29990); test: flavivirus cap methylation enzyme inhibition – biochemical, confirmation dose response, primary screen (AID 588689); assay type: functional
[15] = A549 cell cytotoxicity, dose response, cytotoxicity control, plate reader, cherry-pick, antagonist series (AID 743412); assay type: functional, cell-based
[16] = target: T7, ATP-dependent translocase ABCB1 (Homo sapiens, UniProt P08183); test: P-gp JC-1 efflux blockade concentration-response – Jurkat-DNR cells, flow cytometry, set 2, dose response (AID 504569); assay type: functional; details: read-out: EC50_MICROM_;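 also: potency of pump inhibitors that raise cellular JC-1 green fluorescence up to the nicardipine level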
[17] = toxicity toward HepG2 liver cells – cell-based, plate reader, cherry-pick, antagonist series, cytotoxicity control, dose response (AID 743416); assay type: functional
[18] = target: T8, COUP transcription factor 2 (Homo sapiens, UniProt P24468); test: Luminescence-based cell-based high throughput dose response assay to identify inhibitors of COUP-TFII (NR2F2).; assay type: functional;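 also: HEK293 cells transiently cotransfected with COUP-TFII expression vector and reporter; luciferase reporter luminescence driven by COUP-TFII from the pX2-168 reporter plasmid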
T8 sequence (P24468 whole entry): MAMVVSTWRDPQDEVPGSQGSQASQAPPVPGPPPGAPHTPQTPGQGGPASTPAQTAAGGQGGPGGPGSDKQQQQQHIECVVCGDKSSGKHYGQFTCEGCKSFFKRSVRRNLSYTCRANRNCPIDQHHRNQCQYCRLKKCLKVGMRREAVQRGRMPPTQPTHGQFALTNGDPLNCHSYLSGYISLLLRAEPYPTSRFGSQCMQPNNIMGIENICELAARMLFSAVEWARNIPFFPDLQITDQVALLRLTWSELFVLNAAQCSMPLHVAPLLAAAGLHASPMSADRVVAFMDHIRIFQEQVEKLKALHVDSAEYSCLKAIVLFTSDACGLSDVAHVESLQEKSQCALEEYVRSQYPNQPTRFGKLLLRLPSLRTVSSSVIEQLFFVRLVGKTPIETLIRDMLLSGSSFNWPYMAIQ

H9c2 = test: cells; assay type: functional, cell-based; details: Rattus norvegicus, H9c2, Myocardium;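 also: confirmatory concentration-response retest of ultra-high-throughput screening hits for modulation of myocardial damage; cell death induced by hydrogen peroxide oxidative stress; compound pretreatment for 60 min then peroxide exposure for 2 h; potency is for protecting the cells against peroxide damage rather than for killing them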
[19] = blockade of melanocortin 4 receptor signaling – cell-based, plate reader, cherry pick, counter-screen for LGR2 antagonist project, dose response (AID 743444); assay type: functional;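 also: transfected HEK 293 cells stimulated with alpha-MSH peptide; potency of inhibitors of the alpha-MSH evoked signal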
[20] = target: T7, ATP-dependent translocase ABCB1; test: inhibition of BCRP-mediated JC-1 efflux – Ig-MXP3 cells, flow cytometry, set 2, dose response (AID 504566); assay type: functional; details: read-out: EC50_MICROM_;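 also: flow cytometry median green fluorescence of retained JC-1 dye; potency of efflux pump inhibition measured as rising substrate retention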
[21] = viability loss in HEK293 cells – cell-based, plate reader, cherry-picked samples, cytotoxicity control, dose response (AID 743446); assay type: functional
[22] = blockers of bursicon-stimulated LGR2 cAMP reporter – cell-based, HEK293, CRE-luciferase reporter, cherry pick, set 2, dose response (AID 743343); assay type: functional;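 also: transfected cells were stimulated with diluted bursicon conditioned medium after compound addition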
[23] = activation of miR-122 Renilla sensor silencing – cell-based, Huh7 psiCHECK-miR122, Renilla luciferase, cherry-picked, dose response (AID 651956); assay type: functional;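 also: huh7 hepatoma cells stably carrying a psiCHECK-2 miR-122 sensor plasmid; renilla luciferase signal reporting endogenous miR-122 activity after 48 h compound exposure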
[24] = intracellular Trypanosoma cruzi inhibitors in host cells – cell-based, plate reader, cherry-pick samples, set 3, dose response (AID 651818); assay type: functional;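 also: compounds incubated with infected cells for about four days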
[25] = IGROV1 cell killing – plate reader, dry powder samples, PAX8 inhibitor project, dose response (AID 743043); assay type: functional, cell-based; details: IGROV-1
Paired box protein Pax-8 = Paired box protein Pax-8 (Homo sapiens, UniProt Q06710); test: PAX8 transcriptional activity inhibition in RMG-I – RMG-I cells, luciferase, cherry-pick, dose response (AID 687027); assay type: functional, cell-based;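 also: luciferase reporter driven by Pax8 target thyroperoxidase promoter measured by SteadyGlo luminescence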
[26] = OVCAR-3 cell viability loss – plate reader, dry powder samples, PAX8 inhibitor project, dose response (AID 743044); assay type: functional, cell-based
[27] = OVCAR8 cell viability loss – plate reader, dry powder samples, PAX8 project, dose response (AID 743197); assay type: functional, cell-based; details: OVCAR-8
[28] = T. cruzi growth inhibition in host cells, dose response, cell-based, plate reader, dry powder, set 2 (AID 652275); assay type: functional

CCCN(CCC)C1CCc2ccc(O)cc2C1 (stereo unspecified)
EC50 [1]: 0.0038 µM (active)
EC50 (Mu-type opioid receptor): 92.4 µM (inactive)

O=[N+]([O-])c1ccc(NC(S)=NCCc2ccc(F)cc2)cc1
IC50 [2]: 5.06 µM (active)
AC50 (INS1): 6.89 µM (active)

Cn1c(=O)c(C(=O)CSc2nncs2)c(N)n(Cc2ccccc2)c1=O
IC50 (cells): > 138 µM (inactive)
IC50 (Major prion protein): 8.53 µM (active)

COc1ccc(OC)c(Nc2nc3ccccc3n3cnnc23)c1
IC50 [3]: > 66.6 µM (inactive)
IC50 [4]: 19.2 µM (active)

CCCCC1=CC2=CC(=O)C(C)(OC(=O)c3cccs3)C(=O)C2=CO1 (stereo unspecified)
EC50 [5]: 30.9 µM (active)
IC50 [6]: 10.9 µM (active)
IC50 [7]: 34.4 µM (active)
EC50 [8]: 35.4 µM (active)

Cc1nn(-c2ccccc2)c(Cl)c1/C=C(\CC(=O)O)c1nc2ccccc2s1
IC50 (Beta-lactamase [9]): > 59.6 µM (inactive)
IC50 (Beta-lactamase [10]): > 59.6 µM (inactive)

Cc1ccc(-c2nc(NC(=O)CSc3nnnn3-c3ccccc3)ns2)cc1
IC50 [2]: 1.06 µM (active)

COc1cccc(-c2cc3c(=O)n(-c4ccccc4)c(=S)[nH]c3s2)c1
IC50 (cells): > 138 µM (inactive)
IC50 (Major prion protein): 6.34 µM (active)

CCOC(=O)c1c(NC(=O)COC(=O)c2ccc(NC(=O)CC#N)cc2)sc(C(=O)NC)c1C
IC50 [3]: > 66.6 µM (inactive)
IC50 [11]: 3.43 µM (active)
IC50 [4]: 6.69 µM (active)

CC(=O)NN1C(=O)c2ccc(Oc3cccc([N+](=O)[O-])c3)cc2C1=O
AC50 (Cytochrome P450 2C9): 31.6 µM (inconclusive)
IC50 [12]: 9.92 µM (active)
IC50 [13]: 4.5 µM (active)

Nc1ccc(S(=O)(=O)Nc2nccs2)cc1N=Nc1ccccc1[N+](=O)[O-]
IC50 [14]: 7.09 µM (active)
IC50 (Genome polyprotein): 64.7 µM (active)

COC(=O)C1CCN(CC(=O)Nc2ccc3c(c2)OCCO3)CC1
EC50 [1]: 76.1 µM (inactive)
EC50 (Mu-type opioid receptor): 92.5 µM (inactive)

COc1ccccc1-c1cc2nc(-c3ccccc3)cc(N3CCN(C(=O)c4ccco4)CC3)n2n1
AC50 [15]: 7.34 µM (active)
EC50 [16]: 3.41 µM (active)
AC50 [17]: 2.29 µM (active)
IC50 [18]: 4.17 µM (active)
IC50 (H9c2): > 79 µM (inactive)
AC50 [19]: 6.15 µM (active)
EC50 [20]: 0.94 µM (active)
AC50 [21]: 7.31 µM (active)
AC50 [22]: 6.6 µM (active)

Cc1nc2cc(-c3cccc(Cl)c3)nn2c(N2CCN(C(=O)c3ccsc3)CC2)c1C
EC50 [16]: 4.62 µM (active)
EC50 [20]: 0.56 µM (active)

CNC(=O)C[C@H]1CC[C@@H]2[C@H](COc3ccc(NC(=O)Nc4ccccc4OC)cc3C(=O)N2C)O1
AC50 [23]: 23.1 µM (active)

C[C@H]1CN([C@@H](C)CO)C(=O)Cc2cc(NS(=O)(=O)c3ccc(Cl)cc3)ccc2O[C@@H]1CN(C)Cc1ccc(-c2ccccc2)cc1
AC50 [24]: 3.8 µM (active)

C[C@@H]1CCCCO[C@@H](CN(C)Cc2ccc(C(F)(F)F)cc2)[C@@H](C)CN([C@H](C)CO)C(=O)c2cc(NC(=O)Nc3ccc(C(F)(F)F)cc3)ccc2O1
AC50 [24]: 3.49 µM (active)

COc1cccc(-c2ccc3c(c2)[C@H]2[C@H](CCN2S(=O)(=O)c2ccccc2OC)[C@@H](CO)N3C)c1
AC50 [25]: 34.3 µM (active)
AC50 (Paired box protein Pax-8): 11.1 µM (active)
AC50 [26]: 21.6 µM (active)
AC50 [27]: 25.4 µM (active)

Cc1ccccc1-c1ccc([C@H]2[C@H](CO)N3CCCCN(C(=O)CN4CCOCC4)C[C@@H]23)cc1
AC50 [28]: 0.42 µM (active)

Reference: ChEMBL document CHEMBL1201862, “PubChem BioAssay data set” (2004)
